Assay results reported in patent US7468253B2, “Method for multiple chemokine receptor screening for antagonists using RAM assay” (Chemocentryx, Inc., priority 2001, dated 2008).

Key:
CCR2 = target: T1, CCR2 (Homo sapiens, UniProt P41597); experiment: Conventional cell migration assay, MCP-1 dose response in THP-1 cells; type: cell-based; settings: 90 minutes, FIG. 10
T1 construct: THP-1 cells expressing cell surface CCR1 and CCR2; host or cells: THP-1 (human monocytic)
T1 sequence (P41597 1-360 isoform P41597-2): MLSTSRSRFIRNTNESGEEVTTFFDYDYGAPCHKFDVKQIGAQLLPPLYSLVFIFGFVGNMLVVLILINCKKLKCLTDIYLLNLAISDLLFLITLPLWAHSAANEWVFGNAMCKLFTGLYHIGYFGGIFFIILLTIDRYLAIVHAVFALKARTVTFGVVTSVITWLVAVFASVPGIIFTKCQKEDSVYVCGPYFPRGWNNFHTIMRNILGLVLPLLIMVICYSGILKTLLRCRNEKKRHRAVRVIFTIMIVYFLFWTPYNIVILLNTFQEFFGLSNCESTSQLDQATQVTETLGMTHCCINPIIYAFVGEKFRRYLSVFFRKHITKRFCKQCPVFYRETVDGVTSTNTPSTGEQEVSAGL
Procedure: (§1) To obtain a dose response curve for THP-1 cells expressing cell surface CCR1 and CCR2, a conventional cell migration assay was used (Bacon et al., 1988; Penfold et al., 1999). Cells were harvested by centrifugation and then resuspended in cell migration buffer (Hank's balanced salt solution (HBSS)/0.1% bovine serum albumin (BSA)) at 0.1×10^6 cells per well. The CCR1 and CCR2 ligands MIP-1α and MCP-1, respectively, were prepared in the concentration series (10 nM to 10 μM) by serial dilution in cell migration buffer. At low concentrations, MIP-1α and MCP-1 activate cell migration of CCR1 and CCR2 bearing activated cells, respectively.
(§2) MIP-1α and MCP-1 were loaded in the bottom chamber of a ChemoTx® cell migration apparatus (5 μm pore polycarbonate polyvinylpyrrolidone-coated filters (Neuroprobe; Gaithersburg, Md.); 29 μl/well) and 20 μl of cell suspension (100K cell per well) was placed in the upper chamber. The cells were incubated at 37° C. for 90 minutes. The assay was terminated by removing the cells from the upper chamber and membrane surface using a rubber scraper. The cells that migrated to the lower chamber were quantified by CyQuant assay (Molecular Probes; Eugene, Oreg.), a fluorescent dye method that measures nucleic acid content. […]

THP-1 cells [1] = experiment: Effect of full RAM concentration of MCP-1 on MIP-1α-induced migration; type: cell-based, human; settings: 100 nM MCP-1, THP-1 cells, FIG. 11B
Procedure: An effect of 100 nM of MCP-1 on MIP-1α was studied by comparing migration levels of THP-1 cells as activated by MIP-1α with THP-1 cell migration levels as activated by incubation with MIP-1α and 100 nM MCP-1.
(§3) 100 nM MCP-1 with MIP-1α at various concentrations were loaded in the bottom chamber of a ChemoTx® cell migration apparatus (5 μm pore polycarbonate polyvinylpyrrolidone-coated filters (Neuroprobe; Gaithersburg, Md.); 29 μl/well) and 20 μl of cell suspension (100K cell per well) was placed in the upper chamber. The cells were incubated at 37° C. for 90 minutes. The assay was terminated by removing the cells from the upper chamber and membrane surface using a rubber scraper. The cells that migrated to the lower chamber were quantified by CyQuant assay (Molecular Probes; Eugene, Oreg.), a fluorescent dye method that measures nucleic acid content.

CCR1 = target: T2, CCR1 (Homo sapiens, UniProt P32246); experiment: Conventional cell migration assay, MIP-1α dose response in THP-1 cells; type: cell-based; settings: 90 minutes, FIG. 10
T2 construct: THP-1 cells expressing cell surface CCR1 and CCR2; host or cells: THP-1 (human monocytic)
T2 sequence (P32246 1-355): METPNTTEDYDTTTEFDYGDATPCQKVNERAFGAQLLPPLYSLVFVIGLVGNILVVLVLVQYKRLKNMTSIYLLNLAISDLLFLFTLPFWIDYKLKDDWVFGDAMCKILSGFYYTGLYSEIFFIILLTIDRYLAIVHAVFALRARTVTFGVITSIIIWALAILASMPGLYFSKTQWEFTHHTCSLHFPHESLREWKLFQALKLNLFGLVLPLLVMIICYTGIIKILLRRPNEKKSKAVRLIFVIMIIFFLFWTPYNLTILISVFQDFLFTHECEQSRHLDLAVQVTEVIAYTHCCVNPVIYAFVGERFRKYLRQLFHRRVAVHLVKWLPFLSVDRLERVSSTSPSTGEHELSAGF
Procedure: as §1, §2

THP-1 cells [2] = experiment: Effect of full RAM concentration of MIP-1α on MCP-1-induced migration; type: cell-based, human; settings: 100 nM MIP-1α, FIG. 11A
Procedure: An effect of 100 nM of MIP-1α on MCP-1 was studied by comparing migration levels of THP-1 cells as activated by MCP-1 with THP-1 cell migration levels as activated by incubation with MCP-1 and 100 nM MIP-1α.
as §3, with “nM MIP-1α with” for “nM”, “MCP-1” for “MCP-1 with MIP-1α”

CXCR4 = target: T3, CXCR4 (Homo sapiens, UniProt P61073); experiment: Conventional cell migration assay, SDF-1α dose response (determining inhibitory concentration); type: cell-based; settings: CXCR4-bearing activated lymphocytes, 150 minutes
T3 construct: endogenous in cells
Procedure: To obtain a dose response curve for activated lymphocytes expressing cell surface CXCR4, a conventional cell migration assay was used (Bacon et al., 1988; Penfold et al., 1999). The activated lymphocytes were prepared by culturing lymphocytes in the presence of interleukin-2 (IL-2) and phytohemeagglutinin (PHA). To isolate peripheral blood lymphocytes (i.e., a thin layer of white blood cells called the buffy coat), blood samples from the Stanford blood center were centrifuged for 10 minutes at 1200 rpm leaving a concentrated fraction containing predominantly white blood cellular fraction. Next, peripheral blood mononuclear cells (PBMC) were prepared by the standard Ficoll-Pague (Amersham Biosciences) gradient centrifugation method. Following the centrifugation, PBMC were removed and resuspended in MACS (Dulbecco's Phosphate Buffered Saline, DPBS; 1% Bovine Serum Albumin, BSA) buffer. After removal of the PMBCs, the monocytes were separated by a CD14 positive selection column mounted on an AutoMac (Multenyi Biotech). […]
The CXCR4 ligand stromal-derived factor (SDF-1α) was prepared in a concentration series (0.1 nM to […]) by serial dilution in cell migration buffer. […] The cells that migrated to the lower chamber were quantified by the CyQuant assay (Molecular Probes; Eugene, Oreg.), a fluorescent dye method that measures nucleic acid content. […]

T3 sequence (P61073 whole entry): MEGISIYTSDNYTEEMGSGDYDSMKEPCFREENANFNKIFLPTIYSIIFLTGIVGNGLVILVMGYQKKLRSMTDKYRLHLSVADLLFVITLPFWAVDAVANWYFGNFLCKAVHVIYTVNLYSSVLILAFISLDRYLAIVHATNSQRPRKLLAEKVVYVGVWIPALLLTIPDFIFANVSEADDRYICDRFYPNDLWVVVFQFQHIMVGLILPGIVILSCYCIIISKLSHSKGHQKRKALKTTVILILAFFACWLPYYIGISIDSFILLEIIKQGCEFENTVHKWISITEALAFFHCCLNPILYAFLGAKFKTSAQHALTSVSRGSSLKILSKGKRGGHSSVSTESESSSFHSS

Q: How did the “concentration determined to be completely inhibitory for cell migration” value (CCR2) turn out when “MCP-1: CCR2 ligand, chemokine purchased from PeproTech” was run?
A: 150 nM

Q: What about the “effect on MIP-1α-induced cell migration” value (THP-1 cells [1]) of the same substance?
A: no significant effect

Q: “MIP-1α: CCR1 ligand, chemokine purchased from PeproTech” was tested. Which “concentration determined to be completely inhibitory for cell migration” value (CCR1) did it give?
A: 150 nM

Q: What about the “effect on MCP-1-induced cell migration” value (THP-1 cells [2]) of the same substance?
A: no significant effect

Q: How did the “concentration determined to be completely inhibitory for cell migration” value (CXCR4) turn out when SDF-1α was run?
A: 1 µM
